Reference: US20240368065A1 (HELMHOLTZ-ZENTRUM FÜR INFEKTIONSFORSCHUNG GMBH, priority 2021, published 2024)

Columns and labels:
[1] = target: T1, purified hACOD1 (Homo sapiens, UniProt A6NK06); test: hACOD1 enzyme activity in vitro assay, competitive inhibition; type: biochemical; settings: purified hACOD1, substrate cis-aconitate, competitive inhibition fit, pH 6.5, 37° C.; read-out: Inhibition constant (Ki)
T1 construct: made in house
T1 sequence (A6NK06 1-481): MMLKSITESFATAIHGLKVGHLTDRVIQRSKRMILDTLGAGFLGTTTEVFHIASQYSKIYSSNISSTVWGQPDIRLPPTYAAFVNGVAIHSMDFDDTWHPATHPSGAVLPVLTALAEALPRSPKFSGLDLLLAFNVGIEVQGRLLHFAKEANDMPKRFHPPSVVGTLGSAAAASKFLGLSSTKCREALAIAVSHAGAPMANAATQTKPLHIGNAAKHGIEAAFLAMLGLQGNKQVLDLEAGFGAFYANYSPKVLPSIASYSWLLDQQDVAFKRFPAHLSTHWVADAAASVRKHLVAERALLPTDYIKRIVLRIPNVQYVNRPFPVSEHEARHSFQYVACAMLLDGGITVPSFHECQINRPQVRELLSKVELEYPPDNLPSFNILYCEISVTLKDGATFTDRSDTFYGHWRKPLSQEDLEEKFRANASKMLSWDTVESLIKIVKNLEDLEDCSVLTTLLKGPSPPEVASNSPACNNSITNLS
Protocol: The activity of purified hACOD1 was measured in the presence of increasing concentrations of substrate and the five inhibitors. The data were globally fitted to the Michaelis-Menten equation for competitive inhibition.
The activity of purified hACOD1 was measured in the presence of increasing concentrations of substrate and the five inhibitors. The data was globally fitted to the Michaelis-Menten equation for competitive inhibition.
The compounds were dissolved in water, neutralized with NaOH and stored at −20° C. For the assay, 125 μL 0.2 M sodium phosphate buffer, pH 6.5, was mixed on ice with 5 μL enzyme, 10 μl inhibitor (or 10 μl water) and 10 μL substrate (cis-aconitic acid). The following combinations of enzyme amount and substrate concentration were used for CA: 2 μg enzyme and 0.1 mM substrate, 2 μg and 0.3 mM, 3 […] and 1 mM, 5 μg and 3.0/10.0 mM. For the other inhibitors, 2 μg enzyme and 0.1/0.2/0.5 mM substrate, 3 μg and 1.0/2.0 mM, 5 μg and 5.0/10.0 mM. Incubation for 10 min at 37° C. was immediately followed by heat inactivation at 95° C. for 3 min. Protein precipitate was pelleted by centrifugation for 1 h. Supernatants were acidified with 100 μL 100 mM H3PO4.

[2] = target: T2, ACOD1 (Homo sapiens, UniProt A6NK06); test: Cellular ACOD1 inhibition: intracellular itaconate in PMA-differentiated THP1 stimulated with LPS/IFNγ (HPLC-MS/MS); type: cell-based; settings: compared with citraconic acid
T2 construct: THP1 were differentiated with PMA and then stimulated with LPS/IFNγ for 24 hours; endogenous in cells; host or cells: THP1 (PMA-differentiated, LPS/IFNγ-stimulated)
T2 sequence (A6NK06 1-481): T1 sequence (A6NK06 1-481)
Protocol: FIG. 9: Ethyl homologue of the methyl group of citraconate enhances ACOD1 inhibition in a cellular assay. […] ACOD1 activity was assessed by measuring intracellular itaconate concentrations by HPLC-MS/MS as described in (Winterhoff,
Chen et al Metabolites 2021). IC50=inhibitory concentration 50%; CC50 =cytotoxic concentration 50%; SI=selectivity index=CC50/IC50.
Methylation of the […] of citraconate thus enhances ACOD1 inhibition in a cellular assay. […] ACOD1 activity was assessed by measuring intracellular itaconate concentrations by HPLC-MS/MS as described in Winterhoff, Chen et al (Metabolites 2021).

[3] = tested on: mitochondrial ROS in NRF2−/− human vascular endothelial cells; test: Mitochondrial ROS in human vascular endothelial cells infected with human coronavirus 229E (flow cytometry); type: cell-based; settings: NRF2−/− cells infected with human coronavirus 229E, 24 h after infection, co-incubation
Protocol: FIG. 10: (Z)-2-Ethylbut-2-enedioic acid maintains anti-oxidative properties. Wild-type or NRF2−/−human vascular endothelial cells were infected with human coronavirus 229E (a low pathogenic, seasonal strain), and mitochondrial ROS levels were measured by flow cytometry 24 h after infection.
Maintenance of anti-ROS activity of (Z)-2-ethylbut-2-enedioic acid (“ethylcitraconic acid”; Formula VIII) is shown in a model of infection of cells by a human coronavirus 229E, a low pathogenic CoV strain. Despite the methylation of CA evident in Formel VIII (a methylation that could theoretically lead to loss of electrophilicity), the compound (Z)-2-Ethylbut-2-enedioic acid maintains anti-oxidative properties. Wild-type or NRF2−/−human vascular endothelial cells were infected with human coronavirus 229E (a low pathogenic, seasonal strain), and mitochondrial ROS levels were measured by flow cytometry 24 h after infection.

[4] = tested on: reactive oxygen species (ROS) in dTHP1 cells; test: Mitochondrial ROS in influenza A virus-infected dTHP1 cells (MitoSox Red, flow cytometry); type: cell-based, human; settings: dTHP1 infected with influenza A virus, 10 mM compound, 12 h after infection
Protocol: dTHP1 Cells were seeded at a density of 2×10^5 cells per well in a 12-well plate and infected with influenza A virus at an MOI of 1. Mitochondrial ROS were measured 12 h after infection. Cells were incubated for 5 min with medium containing 5 μM of MitoSox Red (mitochondrial superoxide indicator, Invitrogen) and were washed with PBS. Cells were then resuspended in cold PBS and mitochondrial ROS was measured via the phycoerythrin (PE) channel using a BD™ LSR-II flow cytometer.
As can be observed in FIG. 2, dTHP1 cells were infected with influenza A virus, incubated with 10 mM CA, IA, or MA, and reactive oxygen species (ROS) were measured by flow cytometry.

[5] = tested on: influenza A virus (H1N1/34/PR/8M); type: cell-based
[6] = target: succinate dehydrogenase (SDH) (Homo sapiens, UniProt P31040); test: Preliminary data on binding to succinate dehydrogenase
Chain of succinate dehydrogenase (SDH) (P31040 43-664): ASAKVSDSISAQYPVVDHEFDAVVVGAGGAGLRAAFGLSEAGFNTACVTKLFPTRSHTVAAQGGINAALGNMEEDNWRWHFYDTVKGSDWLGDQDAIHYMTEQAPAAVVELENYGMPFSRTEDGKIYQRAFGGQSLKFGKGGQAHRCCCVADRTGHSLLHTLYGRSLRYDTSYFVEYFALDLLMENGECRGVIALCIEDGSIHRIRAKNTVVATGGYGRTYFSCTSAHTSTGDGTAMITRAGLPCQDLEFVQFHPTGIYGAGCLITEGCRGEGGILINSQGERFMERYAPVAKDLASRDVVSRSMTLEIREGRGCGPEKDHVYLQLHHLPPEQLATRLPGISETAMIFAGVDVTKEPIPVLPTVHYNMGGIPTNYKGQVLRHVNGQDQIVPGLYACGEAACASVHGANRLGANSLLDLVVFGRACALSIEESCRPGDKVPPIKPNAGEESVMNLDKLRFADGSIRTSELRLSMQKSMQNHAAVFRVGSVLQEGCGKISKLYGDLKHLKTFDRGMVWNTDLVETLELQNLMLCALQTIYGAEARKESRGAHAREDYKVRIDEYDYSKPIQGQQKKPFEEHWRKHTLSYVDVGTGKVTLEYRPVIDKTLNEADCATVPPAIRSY
Chain of succinate dehydrogenase (SDH) (P21912 29-280 partner): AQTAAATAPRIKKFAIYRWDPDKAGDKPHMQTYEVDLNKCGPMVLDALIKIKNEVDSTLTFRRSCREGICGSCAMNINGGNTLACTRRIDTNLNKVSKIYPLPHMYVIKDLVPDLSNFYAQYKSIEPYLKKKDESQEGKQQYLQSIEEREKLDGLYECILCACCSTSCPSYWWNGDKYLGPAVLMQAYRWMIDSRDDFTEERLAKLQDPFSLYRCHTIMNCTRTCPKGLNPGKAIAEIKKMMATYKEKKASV
Chain of succinate dehydrogenase (SDH) (Q99643 30-169 partner): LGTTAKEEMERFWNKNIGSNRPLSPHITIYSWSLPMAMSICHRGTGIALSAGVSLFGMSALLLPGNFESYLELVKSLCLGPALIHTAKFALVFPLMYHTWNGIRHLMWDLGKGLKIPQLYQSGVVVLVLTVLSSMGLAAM
Chain of succinate dehydrogenase (SDH) (O14521 57-159 partner): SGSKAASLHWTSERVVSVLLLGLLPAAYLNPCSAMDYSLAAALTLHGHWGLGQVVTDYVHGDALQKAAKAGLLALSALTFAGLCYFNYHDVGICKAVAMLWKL

[7] = tested on: CXCL10 mRNA (encoding IP-10); test: CXCL10 mRNA expression in influenza A virus-infected dTHP1 cells (RT-qPCR); type: cell-based, human; settings: dTHP1 infected with influenza A virus PR8M, MOI 1, 12 h after infection; increasing concentrations; compared among CA, IA, MA
[8] = tested on: phosphorylated STAT1; test: STAT1 phosphorylation immunoblot in influenza A virus-infected A549 and dTHP1 cells; type: cell-based, human; settings: A549 and dTHP1 cells infected with influenza A virus; anti-P-STAT1 immunoblot
Protocol: A549 and dTHP1 cells were infected with influenza A virus and treated with CA, IA or MA.
2×10^5 dTHP1 cells were infected with influenza A virus (H1N1) strain PR8M at a multiplicity of infection of 1. 12 h after infection, cells were washed in buffer, pelleted, and protein extracts resolved by gel electrophoresis and transferred to a nylon membrane. Bands corresponding to phosphorylated Stat1 protein were visualized by enhanced chemiluminescense using specific anti-P-STAT1 primary antibody and […] as secondary antibody.
As can be observed from FIG. 3, A549 and dTHP1 cells were infected with influenza A virus and treated with CA, IA or MA. […] STAT1 phosphorylation is known to be associated with inflammation, and thus CA represents an effective substance in reducing inflammation.

[9] = tested on: Nrf2 signaling (AKR1B10 mRNA); test: Induction of Nrf2 signaling: AKR1B10 mRNA in HaCaT cells (RT-qPCR); type: cell-based, human; settings: 12 hours treatment
Protocol: Induction was greatest by CA, intermediate by IA and lowest by MA.
The immortalized human keratinocyte cell line HaCaT was grown in RPMI 1640 medium (GIBCO Life Technologies, Karlsruhe, Germany) supplemented with 30% FCS, 100 μg/mL pen/strep, 500 μg/mL gentamycin and 1% each Glutamax and nonessential amino acid solution (NEAA; GIBCO Life Technologies, Karlsruhe, Germany). Cells were treated with the indicated concentrations of itaconate, mesaconate and citraconate for 12 hours. Cells were then washed in buffer, pelleted, and RNA was extracted for subsequent analysis of expression of AKR1B10, which is specifically activated by Nrf2 signaling in this cell line. AKR1B10 mRNA expression was determined by RT-qPCR.
Induction was greatest by CA compared to both IA and MA.

| Compound | Ki [1] | STAT1 phosphorylation [8] | Induction of AKR1B10 mRNA (Nrf2 signaling) [9] | also measured |
| --- | --- | --- | --- | --- |
| O=C(O)/C=C(\C(=O)O)c1ccccc1 [2-phenylmaleic acid, 2-Phenylmaleic acid] | 60 ± 30 µM |  |  |  |
| CC1CCC(C(=O)O)=C1C(=O)O (centres unmarked) [3-Methyl-cyclopent-1-ene-1,2-dicarboxylic acid] | 0.335 µM |  |  |  |
| CC/C(=C/C(=O)O)C(=O)O [(Z)-2-ethylbut-2-enedioic acid] | 0.235 ± 0.021 µM |  |  | Cytotoxicity [2]: remains the same; Selectivity index (CC50/IC50) [2]: increases; ACOD1 inhibition in cellular model ([2]; dTHP1, LPS/IFNγ 24 hours, intracellular itaconate): increased ACOD1 inhibition; Mitochondrial ROS levels [3]: reduced to levels seen in uninfected WT cells |
| C/C(=C/C(=O)O)C(=O)O [citraconic acid] |  | reduced STAT1 phosphorylation | greatest | Reduction of reactive oxygen species (ROS) [4]: significant reduction; Viral RNA (hemagglutinin [HA] mRNA) [5]: not influenced; Viral titres in culture supernatants [5]: significantly reduced; Direct binding to SDH [6]: does not directly bind SDH; Reduction of CXCL10 mRNA [7]: greatest |
| O=C(O)C1=C(C(=O)O)CCC1 [cyclopent-1-ene-1,2-dicarboxylic acid, Cyclopent-1-ene-1,2-dicarboxylic acid] | 39 ± 2 µM |  |  |  |
| C=C(CC(=O)O)C(=O)O [itaconic acid] |  | reduced STAT1 phosphorylation | intermediate | Reduction of reactive oxygen species (ROS) [4]: significant reduction |
| C/C(=C\C(=O)O)C(=O)O [mesaconic acid] |  | reduced STAT1 phosphorylation | lowest |  |
